Measured values as given in US20120077876A1, “Method For Improved Bioactivation Of Pharmaceuticals” (Dritte Patentportfolio Beteiligungsgesellschaft Mbh & Co. KG, priority 2009, published 2012).
Blank lines part the entries; values can stand above or below the molecule they belong to.

Key:
[1] = molecular target: T1, peptidylglycine α-amidating monooxygenase (PAM) (Rattus norvegicus, UniProt P14925); assay: PAM assay with colorimetric determination of glyoxylate formation; assay type: biochemical; details: for formation of glyoxylate as the cleavage product of the PAM catalysis: colorimetric assay, substrate 0.1 mM or 1 mM, pH 6.0 and pH 7.4, 37° C.
T1 construct: purchased Unigene Laboratories, Inc. (New Jersey, USA)
T1 sequence (P14925 36-871 isoform P14925-2 limits assumed): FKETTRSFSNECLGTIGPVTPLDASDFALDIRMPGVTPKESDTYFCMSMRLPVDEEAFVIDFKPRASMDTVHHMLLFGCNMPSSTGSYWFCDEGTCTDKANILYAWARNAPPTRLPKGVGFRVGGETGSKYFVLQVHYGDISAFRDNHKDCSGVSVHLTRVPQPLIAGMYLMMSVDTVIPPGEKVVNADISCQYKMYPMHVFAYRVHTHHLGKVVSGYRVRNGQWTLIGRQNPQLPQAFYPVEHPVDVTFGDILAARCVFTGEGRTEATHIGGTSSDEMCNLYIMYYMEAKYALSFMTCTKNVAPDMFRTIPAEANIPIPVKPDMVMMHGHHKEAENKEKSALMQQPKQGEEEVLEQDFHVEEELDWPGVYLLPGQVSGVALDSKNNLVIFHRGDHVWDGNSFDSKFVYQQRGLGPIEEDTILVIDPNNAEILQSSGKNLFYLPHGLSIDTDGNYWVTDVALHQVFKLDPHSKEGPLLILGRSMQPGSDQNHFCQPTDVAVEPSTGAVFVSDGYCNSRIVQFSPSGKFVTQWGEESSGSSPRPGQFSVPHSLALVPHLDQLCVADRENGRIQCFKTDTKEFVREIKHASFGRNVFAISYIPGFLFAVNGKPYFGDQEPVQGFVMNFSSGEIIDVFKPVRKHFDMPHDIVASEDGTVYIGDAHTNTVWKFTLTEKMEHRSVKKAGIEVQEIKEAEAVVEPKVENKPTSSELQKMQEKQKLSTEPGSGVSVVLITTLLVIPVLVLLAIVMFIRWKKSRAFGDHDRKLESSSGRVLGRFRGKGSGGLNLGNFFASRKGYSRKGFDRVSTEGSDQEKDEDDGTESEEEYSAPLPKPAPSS
Description: (§1) The recombinant peptidylglycine α-amidating monooxygenase (PAM, rat, EC 1.14.17.3) that was used was provided by Unigene Laboratories, Inc. (New jersey, USA) (specific activity=5.8 10^6 U/mg protein); bovine liver catalase (EC 1.11.1.6), specific activity=12600 U/mg solid (Aldrich).
(§2) A typical incubation batch of 300 μl (total volume) contained 25000 U/ml peptidylglycine α-amidating monooxygenase (PAM, company: Unigene Laboratories), 250 U/ml catalase, 1 μM copper(II) (employed as acetate/monohydrate), 2 mM sodium ascorbate, 5 mM potassium iodide and the respective substrate in 0.1 mM or 1 mM concentration, in buffers having different pH values. The buffer system used was 30 mM MES for the incubation at pH 6.0 and 50 mM HEPES for the incubation at pH 7.4. The pH value was adjusted in each case with diluted sodium hydroxide. The incubation was carried out at 37° C. in the shaking water bath for 60 minutes, 100 μl was withdrawn, and the reaction was stopped with 50 μl 10% TFA(aq)/acetonitrile (2:3). The remaining batch was incubated for another 180 minutes at 37° C. and stopped with 100 μl 10% TFA(aq)/acetonitrile (2:3).
(§3) The stopped samples were shaken for 5 minutes (vortexer) and frozen at −80° C. To analyze the samples, they were thawed, shaken for 5 minutes, and the precipitated protein was centrifuged at 10000 rpm. The supernatant was used for the colorimetric glyoxylate determination and/or HPLC measurement.
200 μl of the incubation batch that was freed of protein was mixed with 20 μl of a phenylhydrazine solution (20 mg in 2 ml aqua bidest.) and shaken for 5 minutes in the shaking water bath at 37° C. […] The batch was allowed to rest for 15 minutes at room temperature and 200 μl was withdrawn for the measurement using a Plate Reader (Cary 50 UV-Vis photometer, 520 nm).
For a 5-point calibration, glyoxalic acid in concentrations of 2, 5, 10, 50 and 100 μM in a 2:1 mixture of assay buffer (pH 6.0):10% TFA(aq)/acetonitrile (2:3) was measured as described above. […]

[2] = molecular target: T1, peptidylglycine α-amidating monooxygenase (PAM); assay: PAM substrate kinetics (KM and Vmax) by HPLC; assay type: biochemical; details: for Vmax value: pH 6.0, 30 minutes incubation, n=2
Description: as §1
as §2, with “The incubation was carried out at 37° C. in the shaking water bath for 60 minutes, 100 μl was withdrawn, and the reaction was stopped with 50 μl 10% TFA(aq)/acetonitrile (2:3).” left out
as §3
For the KM and Vmax determination, 100 μl batches were treated at pH 6.0 under the aforementioned conditions, however with the difference that the incubation time was 30 minutes.
HPLC Analysis for Separating O-carboxymethyl benzamidoxime (1) and benzamidoxime (2)
(§4) For the calibration, benzamidoxime was dissolved in eight concentrations of 0.1-500 μM, dissolved in assay buffer (30 mM MES, 1 μM copper(II) acetate, 2 mM sodium ascorbate, 5 mM potassium iodide, pH 6.0), and measured using the aforementioned HPLC method. […]
(§5) For the calibration, N-hydroxy-N′,N″-diphenyl guanidine (4) was dissolved in eight concentrations of 0.1-500 μM, dissolved in assay buffer (30 mM MES, […], 2 mM sodium ascorbate, 5 mM potassium iodide, pH 6.0), and measured using the aforementioned HPLC method.

[3] = tested on: cytochrome P450 (CYP450); assay: CYP450 substrate study, porcine liver microsomes and 9000 g supernatant; assay type: in vitro ADME; details: pork liver enzyme sources, pH 6.0 and pH 7.4, NADH or NADPH, 60 or 180 minutes
Description: The pork livers were procured from a local butcher (Bordesholm) and the organs were transported directly after slaughter in an ice-cooled 20 mM phosphate buffer (1 mM Na2 EDTA, pH 7.4). For further processing, the liver lobes were first perfused with 50 mM phosphate buffer (1 mM Na2 EDTA, pH 7.4) and washed. The tissue was cut into pieces and run through a commercially available meat grinder. The suspension was diluted an equal volume of phosphate buffer and homogenized using a flow homogenizer. The microsomes and 9000 g supernatant were further obtained by differential ultracentrifugation. For storage, the resulting preparations were aliquotted and frozen at −80° C.
(§6) A typical incubation bath of 500 μl (total volume) contained 0.3 mg protein (pork or human liver enzyme source), 0.1 mM (or 1 mM) test compound in 100 mM phosphate buffer (pH 6.0 or pH 7.4) and 1 mM NADH (or NADPH). The incubation was started after a 5-minute pre-incubation of the enzyme and test compound in buffer, adding NADH (or NADPH), and the product was shaken for 60 minutes or 180 minutes at 37° C. in the shaking water batch. The batches were stopped by adding the same volume of acetonitrile, shaken using the vortexer, and frozen at −80° C.
To analyze the samples, they were thawed, shaken 5 minutes using the vortexer, and the protein was separated by means of 5-minute centrifugation at 10000 rpm. […]

[4] = tested on: cytochrome P450 (CYP450); assay: CYP450 substrate study, human liver microsomes and 9000 g supernatant; assay type: in vitro ADME; details: human liver enzyme sources, pH 6.0 and pH 7.4, NADH or NADPH, 60 or 180 minutes
Description: To obtain human microsomes, human liver tissue from cancer patients of the surgical department of the University Clinic of Christian-Albrecht University was obtained who had to undergo hemihepatectomy.
The liver tissue pieces were flash-frozen in a saccharose-containing phosphate buffer (10 mM K2HPO4, 10 mM KH2PO4, 250 mM saccharose, 1 mM Na2 EDTA, pH 7.4, 4° C.). As soon as a sufficient quantity of organ parts (>3) was available, the corresponding pieces were thawed and pooled so as to compensate for differences due to interindividual variations. The tissue pieces were cut into smaller parts at 4° C., washed several times with buffer solution (without EDTA), and processed into a suspension using a homogenizer. The microsomes and 9000 g supernatant were further obtained from this suspension by differential ultracentrifugation. For storage, the resulting preparations were aliquotted and frozen at −80° C.
as §6, with “The batches were stopped by adding the same volume of acetonitrile, shaken using the vortexer, and frozen at −80° C.” left out

[5] = substrate: O=C(O)CON=C(Nc1ccccc1)Nc1ccccc1; assay: PAM substrate kinetics (KM and Vmax) by HPLC; assay type: biochemical, rat; details: other: pH 6.0, 30 minutes incubation, two independent experiments (n=2), 37.0 °C
Description: as §1
as §2, with “The incubation was carried out at 37° C. in the shaking water bath for 60 minutes, 100 μl was withdrawn, and the reaction was stopped with 50 μl 10% TFA(aq)/acetonitrile (2:3). The remaining batch was incubated for another 180 minutes at 37° C. and stopped with 100 μl 10% TFA(aq)/acetonitrile (2:3).” left out
as §4, §5

[6] = substrate: N/C(=N\OCC(=O)O)c1ccccc1; assay: PAM substrate kinetics (KM and Vmax) by HPLC; assay type: biochemical, rat; details: other: pH 6.0, 30 minutes incubation, two independent experiments (n=2), 37.0 °C
Description: as §1
as §2, with “The incubation was carried out at 37° C. in the shaking water bath for 60 minutes, 100 μl was withdrawn, and the reaction was stopped with 50 μl 10% TFA(aq)/acetonitrile (2:3). The remaining batch was incubated for another 180 minutes at 37° C. and stopped with 100 μl 10% TFA(aq)/acetonitrile (2:3).” left out
as §4, §5

conversion at the pH optimum of PAM (pH 6.0) in comparison with incubation at pH 7.4 ([1]; colorimetric glyoxylate determination, FIG. 1): considerably higher conversions | Vmax value [2]: 393±40 nmol min^−1 mg^−1 PAM
Molecule: N/C(=N\OCC(=O)O)c1ccccc1 [compound 1, O-carboxymethyl benzamidoxime]
formation of glyoxylate as the cleavage product of the PAM catalysis [1]: verified in an concentration-dependent manner | detection of O-dealkylated metabolite and its N-reduction product by HPLC [3]: neither benzamidoxime possible prodrug of benzamidine) nor benzamidine were detected | detection of O-dealkylated metabolite and its N-reduction product by HPLC [4]: neither benzamidoxime possible prodrug of benzamidine) nor benzamidine were detected

conversion rate in comparison with the amidoxime prodrug 1 ([2]; comparison of Vmax): comparable | Vmax value [2]: 373 ± 53 nmol min⁻¹ mg⁻¹ PAM
Molecule: O=C(O)CON=C(Nc1ccccc1)Nc1ccccc1 [compound 3, N-carboxymethoxy-N′,N″-diphenyl guanidine]
formation of glyoxylate as the cleavage product of the PAM catalysis [1]: comparable to those of the amidoxime model compound 1

B1: peptidylglycine α-amidating monooxygenase (PAM) (Rattus norvegicus) (protein)
chain: T1 sequence (P14925 36-871 isoform P14925-2 limits assumed)
notes: purchased Unigene Laboratories, Inc. (New Jersey, USA)
Km [5]: 37 ± 5 µM | Km [6]: 307 ± 80 µM
